This is an account of results in publication PMC11433014, “In Vitro In Silico Screening Strategy and Mechanism of Novel Tyrosinase Inhibitory Peptides from Nacre of Hyriopsis cumingii” (Marine Drugs, 2024).

As usually defined, the IC50 is the midpoint of a concentration-inhibition curve. A low value points to greater potency in that assay.

“Also recorded” adds a separate entry of the source. Where no end group is shown, it is not given here.

Data set [1] deals with superoxide dismutase (SOD). Kind of data set: SOD activity in B16F10 cells. The class given is cell-based, mouse. As to conditions: 50 μg/mL (highest treatment concentration; Kojic acid 50 μg/mL). On the procedure: (§1) Cell culture and treatment methods were the same as described in Section 3.10. The activities of catalase (CAT), glutathione peroxidase (GSH-Px), and superoxide dismutase (SOD) were determined using the assay kit from Nanjing Jianjian Bioengineering Research Institute (Nanjing, China).

Data set [2] deals with melanin production in B16F10 cells. Briefly: Melanin content of B16F10 cells. The class given is cell-based, mouse. As to conditions: 50 μg/mL (highest treatment concentration; Kojic acid 50 μg/mL), 48 h, absorbance 405 nm, vs control.
Description: Cells in the logarithmic growth phase were cultured at a density of 4 × 10^5 cells per well in 6-well plates. Following a 24 h incubation period, the culture supernatant was discarded. Experimental groups were established, including a control group, a positive control group treated with Kojic acid at a concentration of 50 µg/mL [40], and peptide-treated groups at concentrations of 10, 25, and 50 µg/mL. After an additional 24 h of incubation, the cells were lysed, and the resulting cell lysates were subjected to centrifugation at 12,000 rpm for 10 min. The reaction mixture was prepared by combining 50 µL of the cell lysate supernatant, 50 µL of 1 mg/mL L-DOPA, and 50 µL of PBS buffer. This mixture was incubated at 37 °C for 1 h. Subsequently, the level of dopamine formation was quantified spectrophotometrically at a wavelength of 475 nm.
The cell culture stage for melanin content determination was as follows: The cells were washed twice with PBS buffer after 48 h of peptide treatment. Trypsin digestion was performed, and the cells were collected. […] Then, 200 µL of the supernatant was transferred to a 96-well plate, and the absorbance was measured at 405 nm. The melanin content was then expressed as a percentage of the control group.
Data set [3] relates to glutathione peroxidase (GSH-Px). Briefly: GSH-Px activity in B16F10 cells. To be noted: 50 μg/mL (highest treatment concentration; Kojic acid 50 μg/mL). The class given is cell-based, mouse. On the procedure: as §1
Data set [4] concerns tyrosinase activity in B16F10 cells. Kind of data set: Intracellular tyrosinase activity in B16F10 cells. The class given is cell-based, mouse. As to conditions: 50 μg/mL (highest treatment concentration; Kojic acid 50 μg/mL), 24 h, L-DOPA, 475 nm, vs control. The method, then: Cells in the logarithmic growth phase were cultured at a density of 4 × 10^5 cells per well in 6-well plates. Following a 24 h incubation period, the culture supernatant was discarded. Experimental groups were established, including a control group, a positive control group treated with Kojic acid at a concentration of 50 µg/mL [40], and peptide-treated groups at concentrations of 10, 25, and 50 µg/mL. After an additional 24 h of incubation, the cells were lysed, and the resulting cell lysates were subjected to centrifugation at 12,000 rpm for 10 min. The reaction mixture was prepared by combining 50 µL of the cell lysate supernatant, 50 µL of 1 mg/mL L-DOPA, and 50 µL of PBS buffer. This mixture was incubated at 37 °C for 1 h. Subsequently, the level of […] formation was quantified spectrophotometrically at a wavelength of 475 nm. The activity of tyrosinase was reported as a percentage relative to the blank control.

For a further data set, the system named is catalase (CAT). Kind of data set: CAT activity in B16F10 cells. The format is cell-based, mouse. As to conditions: 50 μg/mL (highest treatment concentration; Kojic acid 50 μg/mL). On the procedure:
as §1

A short description of data set [5]: ABTS free radical scavenging capacity (kit). To be noted: synthetic peptides, 1 mg/mL; ranking among the three peptides (p < 0.05). The method, then:
(§2) Use a concentration of 1 mg/mL of the enzymatic hydrolysate to assess the free radical scavenging rate. DPPH and ABTS free radical scavenging capacity assays were conducted using kits from Grace Biotechnology Co., Ltd. (Suzhou, Jiangsu, China). The subsequent determination of the inhibitory rate of peptide tyrosinase synthesis and the antioxidant measurement methods refer to this step.

For the next data set, the target named is T1, Tyrosinase (Agaricus bisporus, UniProt C7FF04).
T1 construct: purchased Shanghai Yuanye Biotechnology Co., Ltd. (Shanghai, China)
Briefly: Tyrosinase inhibitory activity assay (mushroom tyrosinase, L-tyrosine substrate). The class given is biochemical. To be noted: 0.5 mg/mL L-tyrosine, PBS, 20 μL tyrosinase (500 U/mL), preincubation 37 °C 10 min, reaction 10 min at 37 °C; mean ± SD of at least three experiments.

Data set [6] in a line: DPPH free radical scavenging capacity (kit). As to conditions: synthetic peptides, 1 mg/mL; comparison among the three peptides, in words. On the procedure: as §2
(In general: DPPH is a stable violet radical that fades when it is reduced.)

In another data set the test system is B16F10 cells. Briefly: Cytotoxicity to B16F10 cells (CCK-8). To be noted: 10–800 μg/mL. The class given is cell-based, mouse. On the procedure: B16F10 cells were purchased from Hunan FengHui Biotechnology Co., Ltd. (Changsha, Hunan, China). Cell cultures of B16F10, specifically from generations 10 to 25, were maintained in a medium consisting of DMEM supplemented with 10% fetal bovine serum and 1% antibiotic–antifungal solution, under conditions of 5% CO2 at 37 °C.
Cell viability was evaluated utilizing the Cell Counting Kit-8 (CCK-8) assay. During the logarithmic growth phase, 100 µL of cell suspension, containing 3000 cells per well, was transferred into 96-well plates. Following a 24 h incubation period at 37 °C, the supernatant was discarded. Wells containing 100 µL of medium were designated as blank controls. […]

T1 sequence (C7FF04 1-392): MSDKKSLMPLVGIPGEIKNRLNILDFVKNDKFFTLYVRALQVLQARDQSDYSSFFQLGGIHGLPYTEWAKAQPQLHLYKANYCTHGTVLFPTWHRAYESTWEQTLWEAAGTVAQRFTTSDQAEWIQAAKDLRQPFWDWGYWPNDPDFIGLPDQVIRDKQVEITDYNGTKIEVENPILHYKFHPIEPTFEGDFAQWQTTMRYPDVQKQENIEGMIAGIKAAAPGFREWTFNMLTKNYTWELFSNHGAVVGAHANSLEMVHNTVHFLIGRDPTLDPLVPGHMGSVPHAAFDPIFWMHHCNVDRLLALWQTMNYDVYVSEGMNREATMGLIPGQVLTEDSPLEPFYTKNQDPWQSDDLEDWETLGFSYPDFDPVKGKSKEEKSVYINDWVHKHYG

For `O=c1cc(CO)occ1O` [Kojic acid], the “increase of SOD activity” value in [1] is given as 68.81%. For the same compound, the “decrease of melanin content” value in data set [2] came to 17.39%. In data set [3], the “increase of GSH-Px activity” value is given as 25.56%. Moreover, the “decrease of intracellular tyrosinase activity” value in data set [4] is 16.64%. Further, the “increase of CAT activity” value in the data set with catalase (CAT) amounted to 32.04%.
For “GYHFHSYP [GYHFHSYP, Gly-Tyr-His-Phe-His-Ser-Tyr-Pro]”, the “ABTS radical scavenging ability (ranking)” value in data set [5] is given as “GYHFHSYP > YPNPY > YVPGHG (p < 0.05)”. Also, the IC50 at Tyrosinase is above 5000 µM. Moreover, the “DPPH radical scavenging effect” value in data set [6] is “remained consistent at a concentration of 1 mg/mL (p > 0.05)”.
Take YPNPY [YPNPY, Tyr-Pro-Asn-Pro-Tyr]: the “viability of B16F10 cells” value with B16F10 cells is given as around 100%. For the same compound, the “cytotoxicity / viability vs control group” value in the data set with B16F10 cells (in words) is reported as “no significant difference in the viability of B16F10 cells; also recorded: did not exhibit any cytotoxic effects”. The compound also showed an IC50 against Tyrosinase of 545 ± 28 µM.
Regarding “YVPGHG [YVPGHG, Tyr-Val-Pro-Gly-His-Gly]”, the “ABTS radical scavenging ability (ranking)” value in data set [5] is “GYHFHSYP > YPNPY > YVPGHG (p < 0.05)”. In addition, the IC50 on Tyrosinase was above 50000 µM. The “DPPH radical scavenging effect” value in data set [6] is “remained consistent at a concentration of 1 mg/mL (p > 0.05)”.
